Molecular target: T1, human TRPV4 (Homo sapiens, UniProt Q9HBA0)
T1 construct: host or cells: tetracycline-inducible Flp-In T-REx 293 cells
Test: Hypotonicity-induced Ca2+ influx (Fluo-4, FDSS)
Assay type: cell-based
How it was run: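 Flp-In T-REx 293 cells with tetracycline-induced human TRPV4, loaded with Fluo-4 for 60 min at 25 °C. Compound added 5 min before hypotonic mannitol/CaCl2 solution. Ca2+ signal recorded for 4.5 min on FDSS.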

[1] = Flp-In T-REx 293 cells expressing human TRPV4, examples listed under heading 'Human IC50<50 nM'
[2] = Flp-In T-REx 293 cells stably expressing human TRPV4, compounds listed by potency bin (<10 nM Tables 96-1/96-2, <3 nM Table 97)

T1 sequence (Q9HBA0 whole entry): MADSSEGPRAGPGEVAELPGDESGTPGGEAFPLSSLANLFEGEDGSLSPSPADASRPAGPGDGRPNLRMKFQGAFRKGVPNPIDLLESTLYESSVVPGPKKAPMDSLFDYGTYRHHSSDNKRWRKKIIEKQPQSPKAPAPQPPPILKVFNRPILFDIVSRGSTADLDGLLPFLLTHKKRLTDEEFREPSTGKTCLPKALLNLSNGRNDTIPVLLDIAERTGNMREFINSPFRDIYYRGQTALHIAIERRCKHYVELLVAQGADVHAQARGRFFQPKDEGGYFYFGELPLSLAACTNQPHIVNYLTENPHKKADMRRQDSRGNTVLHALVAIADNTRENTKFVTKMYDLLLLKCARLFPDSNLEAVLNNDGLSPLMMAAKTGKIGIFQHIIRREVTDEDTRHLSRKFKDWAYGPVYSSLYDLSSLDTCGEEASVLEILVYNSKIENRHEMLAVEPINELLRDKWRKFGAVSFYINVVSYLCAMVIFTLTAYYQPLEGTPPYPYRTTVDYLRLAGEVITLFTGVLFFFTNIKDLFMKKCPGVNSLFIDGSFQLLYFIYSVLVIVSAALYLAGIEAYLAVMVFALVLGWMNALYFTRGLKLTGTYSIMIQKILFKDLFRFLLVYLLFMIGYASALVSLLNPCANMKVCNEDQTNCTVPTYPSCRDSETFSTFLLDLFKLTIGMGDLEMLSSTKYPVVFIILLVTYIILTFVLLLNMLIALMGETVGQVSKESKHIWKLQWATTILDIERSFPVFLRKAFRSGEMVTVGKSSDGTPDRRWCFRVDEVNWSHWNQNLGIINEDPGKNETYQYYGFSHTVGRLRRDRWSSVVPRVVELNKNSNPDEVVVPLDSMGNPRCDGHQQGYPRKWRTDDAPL

Compound	IC50 [1] [µM]	IC50 [2] [µM]
CC(C)c1csc(C2(c3nc4c(c(=O)[nH]3)CN(C(=O)[C@H](O)c3cccc(C(F)(F)F)c3)CC4)CC2)c1 [15-2]	< 0.05	< 0.003
O=C(Cc1cccc(-c2cccc(C(F)(F)F)c2)c1)N1CCCc2nc(C3(c4cccc(Cl)c4)CC3)[nH]c(=O)c2C1 [17-99]	< 0.05	< 0.01
CC(C)c1cccc(C2(c3nc4c(c(=O)[nH]3)CN(C(=O)C(O)c3cccc(C(C)(C)C)c3)CC4)CC2)c1 (stereo not shown) [14-107]	< 0.05	< 0.01
CC(C)c1cccc(C2(c3nc4c(c(=O)[nH]3)CN(C(=O)C(O)c3cccc(S(F)(F)(F)(F)F)c3)CCC4)CC2)c1 (stereo not shown) [17-39]	< 0.05	< 0.01
O=C(Cc1cccc(-c2ccc(Cl)cc2)c1)N1CCCc2nc(C3(c4cccc(Cl)c4)CC3)[nH]c(=O)c2C1 [17-130]	< 0.05	< 0.01
O=C(N1CCCc2nc(C3(c4cccc(Cl)c4)CC3)[nH]c(=O)c2C1)C(F)(F)c1cccc(C(F)(F)F)c1 [20-4]	< 0.05	< 0.003
O=C(C(O)c1cccc(-c2ccc(Cl)cc2)c1)N1CCCc2nc(C3(c4cccs4)CC3)[nH]c(=O)c2C1 (stereo not shown) [18-5]	< 0.05	< 0.01
O=C([C@H](O)c1cccc(Cl)c1)N1CCCc2nc(C3(c4cc(C5CCOCC5)cs4)CC3)[nH]c(=O)c2C1 [18-25]	< 0.05	< 0.01
O=C(C(O)c1cccc(F)c1F)N1CCc2nc(C3(c4cccc(F)c4)CC3)[nH]c(=O)c2C1 (stereo not shown) [3-28]	< 0.05	–
O=C([C@H](O)c1cccc(Cl)c1)N1CCCc2nc(C3(c4cc(-c5ccccc5)cs4)CC3)[nH]c(=O)c2C1 [39-1]	< 0.05	< 0.003
O=C(Cc1cccc(OCc2ccccc2)c1)N1CCCc2nc(C3(c4cccc(Cl)c4)CC3)[nH]c(=O)c2C1 [17-122]	< 0.05	< 0.01
CC(C)c1csc(C2(c3nc4c(c(=O)[nH]3)CN(C(=O)C(F)(F)c3cccc(Cl)c3)CCC4)CC2)c1 [21-3]	< 0.05	< 0.003
O=C(C(O)c1cccc(OCc2ccccc2)c1)N1CCc2nc(C3(c4ccccc4)CC3)[nH]c(=O)c2C1 (stereo not shown) [14-111]	< 0.05	–
O=C([C@H](O)c1cccc(C(F)(F)F)c1)N1CCc2nc(C3(c4cncc(C5CCCC5)c4)CC3)[nH]c(=O)c2C1 [28-1]	< 0.05	< 0.003
O=C([C@H](O)c1cccc(F)c1F)N1CCCc2nc(C3(c4cccc(F)c4)CC3)[nH]c(=O)c2C1 [17-60]	< 0.05	–
O=C(Cc1cccc(-c2cccc(Cl)c2)c1)N1CCc2nc(C3(c4cccc(C5CCCCC5)c4)CC3)[nH]c(=O)c2C1 [27-7]	< 0.05	< 0.01
O=C(C(O)c1cccc(-c2ccc(Cl)cc2)c1)N1CCc2nc(C3(c4cccc(F)c4)CC3)[nH]c(=O)c2C1 (stereo not shown) [14-24]	< 0.05	–

Now from value to compound:

IC50 [1] [µM]	IC50 [2] [µM]	Compound
< 0.05	< 0.003	N#Cc1ccc(-c2cccc([C@@H](O)C(=O)N3CCCc4nc(C5(c6cccc(Cl)c6)CC5)[nH]c(=O)c4C3)c2)cc1 [50-20]
< 0.05	–	COc1cccc(-c2cccc(C(O)C(=O)N3CCc4nc(C5(c6ccccc6)CC5)[nH]c(=O)c4C3)c2)c1 (stereo not shown) [44-53]
< 0.05	< 0.01	CC(C)(C)c1cccc(-c2cccc([C@@H](O)C(=O)N3CCCc4nc(C5(c6cncc(-c7ccccc7)c6)CC5)[nH]c(=O)c4C3)c2)c1 [56-4]
< 0.05	< 0.003	Cn1ncc2c(-c3cccc(C4(c5nc6c(c(=O)[nH]5)CN(C(=O)[C@H](O)c5cccc(Cl)c5)CCC6)CC4)c3)cccc21 [40-10]
< 0.05	< 0.01	Cn1cc(-c2cccc(C3(c4nc5c(c(=O)[nH]4)CN(C(=O)[C@H](O)c4cccc(C(F)(F)F)c4)CCC5)CC3)c2)cn1 [42-27]
< 0.05	< 0.01	CNc1ccc(-c2cccc(C3(c4nc5c(c(=O)[nH]4)CN(C(=O)[C@H](O)c4cccc(C(F)(F)F)c4)CCC5)CC3)c2)cn1 [42-54]
< 0.05	< 0.003	O=C([C@H](O)c1cccc(-c2cccc(OC(F)(F)F)c2)c1)N1CCCc2nc(C3(c4cccs4)CC3)[nH]c(=O)c2C1 [53-2]
< 0.05	< 0.01	O=C(C(O)c1cccc(-c2cccc(C(F)(F)F)c2)c1)N1CCc2nc(C3(c4ccccc4)CC3)[nH]c(=O)c2C1 (stereo not shown) [44-6]
< 0.05	< 0.01	O=C([C@H](O)c1cccc(Cl)c1)N1CCCc2nc(C3(c4cccc(-c5cnn(C6CC6)c5)c4)CC3)[nH]c(=O)c2C1 [40-13]
< 0.05	< 0.003	O=C([C@H](O)c1cccc(-c2ccc(Cl)c(Cl)c2)c1)N1CCCc2nc(C3(c4ccccc4)CC3)[nH]c(=O)c2C1 [49-40]
< 0.05	–	O=C([C@H](O)c1cccc(C(F)(F)F)c1)N1CCCc2nc(C3(c4cccc(-c5cncnc5)c4)CC3)[nH]c(=O)c2C1 [42-33]
< 0.05	< 0.01	Cc1cc(-c2cccc([C@@H](O)C(=O)N3CCc4nc(C5(c6ccccc6)CC5)[nH]c(=O)c4C3)c2)ccc1Cl [44-117]
< 0.05	< 0.01	O=C([C@H](O)c1cccc(-c2ccc(Cl)c(Cl)c2)c1)N1CCc2nc(C3(c4ccccc4)CC3)[nH]c(=O)c2C1 [44-101]
< 0.05	< 0.01	O=C([C@H](O)c1cccc(-c2cccc(F)c2)c1)N1CCCc2nc(C3(c4ccccc4)CC3)[nH]c(=O)c2C1 [49-12]
< 0.05	< 0.01	O=C([C@H](O)c1cccc(C(F)(F)F)c1)N1CCCc2nc(C3(c4cccc(-c5ccc(C6(O)CCOCC6)cc5)c4)CC3)[nH]c(=O)c2C1 [42-22]
< 0.05	< 0.01	N#Cc1cc(F)cc(-c2cccc(C3(c4nc5c(c(=O)[nH]4)CN(C(=O)[C@H](O)c4cccc(C(F)(F)F)c4)CCC5)CC3)c2)c1 [42-69]
< 0.05	–	O=C([C@H](O)c1cccc(C(F)(F)F)c1)N1CCCc2nc(C3(c4cncc(-c5cnsc5)c4)CC3)[nH]c(=O)c2C1 [43-2]
< 0.05	< 0.003	O=C([C@H](O)c1cccc(C(F)(F)F)c1)N1CCCc2nc(C3(c4cccc(-c5ccnc(C(F)(F)F)c5)c4)CC3)[nH]c(=O)c2C1 [42-48]
< 0.05	–	COCCOc1cccc(-c2cccc(C(O)C(=O)N3CCc4nc(C5(c6ccccc6)CC5)[nH]c(=O)c4C3)c2)c1 (stereo not shown) [44-29]
< 0.05	< 0.003	COCCOc1cccc(-c2cccc(C3(c4nc5c(c(=O)[nH]4)CN(C(=O)[C@H](O)c4cccc(C(F)(F)F)c4)CCC5)CC3)c2)c1 [42-4]
< 0.05	< 0.01	CC(C)(C)c1cccc(-c2cccc([C@@H](O)C(=O)N3CCCc4nc(C5(c6cc(C7CCCCC7)cs6)CC5)[nH]c(=O)c4C3)c2)c1 [54-7]
< 0.05	< 0.01	O=C(C(O)c1cccc(-c2cccc(SC(F)(F)F)c2)c1)N1CCc2nc(C3(c4ccccc4)CC3)[nH]c(=O)c2C1 (stereo not shown) [44-18]
< 0.05	< 0.01	O=C(Cc1cccc(-c2cccc(C(F)(F)F)n2)c1)N1CCCc2nc(C3(c4cccc(Cl)c4)CC3)[nH]c(=O)c2C1 [57-7]
< 0.05	< 0.01	CC(C)c1csc(C2(c3nc4c(c(=O)[nH]3)CN(C(=O)[C@H](O)c3cccc(-c5cccc(C(F)(F)F)c5)c3)CCC4)CC2)c1 [54-4]
< 0.05	< 0.003	O=C([C@H](O)c1cccc(-c2ccc(Cl)cc2)c1)N1CCCc2nc(C3(c4cccc(Cl)c4)CC3)[nH]c(=O)c2C1 [50-5]

— patent US12673946B2, “Pyrimidin-4(3H)-one derivatives as TRPV4 antagonists” (RaQualia Pharma Inc., priority 2020, dated 2026)
